What all share (assay): In Vitro Antibacterial Activity, agar dilution MIC
Common to all, as to type: cell-based

In one assay the test system is Acinetobacter SP CMX 699. As to conditions: BHI agar dilution, 20-24 hours, unit assumed. An outline of the steps:
(§1)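 Twelve plates of Brain Heart Infusion agar with successive 2-fold compound dilutions are prepared. Strains are applied by Steers replicator at approximately 10^4 CFU. Plates incubate about 20-24 hours at 35°-37° C, and the MIC is the lowest concentration without growth.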

The subject of the next assay is Escherichia coli JUHL. The note with it: E. coli JUHL; BHI agar dilution, 20-24 hours; unit assumed. An outline of the steps: as §1
Assay [1] deals with Klebsiella pneumoniae ATCC 8045. The note with it: K. pneumoniae ATCC 8045; BHI agar dilution, 20-24 hours; unit assumed. An outline of the steps:
as §1

Assay [2] has as its system Providencia stuartii CMX 640. As to conditions: P. stuartii CMX 640; BHI agar dilution, 20-24 hours; unit assumed. The method in brief:
as §1

Assay [3] concerns Pseudomonas aeruginosa A5007. As to conditions: P. aeruginosa A5007; BHI agar dilution, 20-24 hours; unit assumed. The method in brief: as §1
The test system of the next assay is Pseudomonas cepacia 2961. The note with it: P. cepacia 2961; BHI agar dilution, 20-24 hours; unit assumed. An outline of the steps:
as §1

For a further assay, the system named is Staphylococcus aureus 45. As to conditions: S. aureus 45; BHI agar dilution, 20-24 hours; unit assumed. An outline of the steps:
as §1

In assay [4] the test system is Streptococcus agalactaciae CMX 508. As to conditions: S. agalactaciae CMX 508; BHI agar dilution, 20-24 hours; unit assumed. The method in brief: as §1
For assay [5], the system named is Streptococcus pyogenes 2548 INDUC. The note with it: S. pyogenes 2548 INDUC; BHI agar dilution, 20-24 hours; unit assumed. The method in brief:
as §1

Structures are written as SMILES. ≈ marks a conversion by molar mass, not a printed value. Some results are limits rather than exact numbers.

Turning to `CN(C)CC1COC2(CCN(c3nc4c(cc3F)c(=O)c(C(=O)O)cn4-c3ccc(F)cc3F)C2)O1` (stereo not drawn) [Example 445], the MIC values against Acinetobacter SP CMX 699 was 6.2 µg/mL (≈ 12.3 µM); against Escherichia coli JUHL it was 1.56 µg/mL (≈ 3.09 µM); in [1] it was 1.56 µg/mL (≈ 3.09 µM); in assay [2], more than 100 µg/mL; in assay [3] it was 12.5 µg/mL (≈ 24.8 µM); against Pseudomonas cepacia 2961 it was 50 µg/mL (≈ 99.1 µM). Besides, the results for the MIC values (against Staphylococcus aureus 45; in assay [4]; in assay [5]) were 0.39 µg/mL (≈ 0.773 µM), 1.58 µg/mL (≈ 3.13 µM) and 0.2 µg/mL (≈ 0.396 µM), respectively.

The values above are taken from patent US5137892A, “Quinoline, naphthyridine and pyridobenzoxazine derivatives” (Abbott Laboratories, priority 1990, dated 1992).
